In ChEMBL document CHEMBL4715710, “Discovery, synthesis, and structure-activity relationships of 20S-dammar-24-en-2α,3β,12β,20-tetrol (GP) derivatives as a new class of AMPKα2β1γ1 activators” (Bioorg Med Chem, 2016):
Calls of active or inactive are those of the source. The rule behind the calls is not given here.

How the values were obtained:
[1] = Activation of human recombinant AMPK alpha2/beta1/gamma1 using substrate-1 peptide as substrate incubated for 45 mins in presence of ATP by HTRF assay
[2] = species on record: Homo sapiens; experiment: Activation of human recombinant AMPK alpha2/beta1/gamma1 using substrate-1 peptide as substrate incubated for 45 mins in presence of ATP by HTRF assay relative to negative control
[3] = test system: HepG2; experiment: Activation of AMPK in human HepG2 cells assessed as induction of AMPK phosphorylation at alpha subunit at 2.5 to 20 uM measured after 1 hr by Western blot analysis; type: cell-based; settings: filed as activator, dose 2.5-20 µM
[4] = test system: L6; experiment: Effect on mitochondrial membrane potential in rat L6 cells at 5 to 40 uM measured after 1 hr by JC-1 staining based assay; type: functional, cell-based; settings: dose 5-40 µM
[5] = Inhibition of gluconeogenesis in C57/BL6 mouse primary hepatocytes at 10 to 20 uM measured after 6 hrs relative to control; type: functional, Hepatocyte; settings: dose 10-20 µM
[6] = test system: HepG2; experiment: Activation of AMPK in human HepG2 cells assessed as induction of ACC phosphorylation at Ser79 residue at 2.5 to 20 uM measured after 1 hr by Western blot analysis; type: cell-based; settings: filed as activator, dose 2.5-20 µM
[7] = test system: Hepatocyte; experiment: Cytotoxicity against C57/BL6 mouse primary hepatocytes at 5 to 40 uM measured after 24 hrs by sulforhodamine B assay; type: cell-based; settings: dose 5-40 µM
[8] = test system: HepG2; experiment: Activation of AMPK in human HepG2 cells assessed as induction of AMPK phosphorylation of Thr-172 residue at alpha subunit measured after 1 hr by Western blot analysis; type: cell-based; settings: filed as activator, dose 2.5-20 µM
[9] = Inhibition of gluconeogenesis in C57/BL6 mouse primary hepatocytes at 20 uM measured after 6 hrs relative to control; type: functional; settings: C57/BL6, Hepatocyte
[10] = test system: HepG2; experiment: Activation of AMPK in human HepG2 cells assessed as induction of ACC phosphorylation at Ser79 residue measured after 1 hr by Western blot analysis; type: cell-based; settings: filed as activator, dose 2.5-20 µM
[11] = test system: Syrian golden hamster; experiment: Antidyslipidemic activity against HFHC diet-induced hyperlipidemia in Golden Syrian hamster model assessed as decrease in low density lipoprotein cholesterol at 100 mg/kg, po bid via gavage administered for 2 weeks and measured after 28 days by automated chemistry analyzer; type: functional, organism-based; settings: Mesocricetus auratus
[12] = test system: Syrian golden hamster; experiment: Antidyslipidemic activity against HFHC diet-induced hyperlipidemia in Golden Syrian hamster model assessed as decrease in ratio of LDL-C to HDL-C at 100 mg/kg, po bid via gavage administered for 2 weeks and measured after 28 days by automated chemistry analyzer; type: functional, organism-based; settings: Mesocricetus auratus
[13] = test system: Syrian golden hamster; experiment: Antidyslipidemic activity against HFHC diet-induced hyperlipidemia in Golden Syrian hamster model assessed as decrease in high density lipoprotein cholesterol at 100 mg/kg, po bid via gavage administered for 2 weeks and measured after 28 days by automated chemistry analyzer; type: functional, organism-based; settings: Mesocricetus auratus
[14] = test system: HepG2; experiment: Activation of AMPK in human HepG2 cells assessed as induction of ACC phosphorylation at Ser79 residue at 20 uM measured after 1 hr by Western blot analysis; type: cell-based; settings: filed as activator
[15] = test system: HepG2; experiment: Activation of AMPK in human HepG2 cells assessed as induction of AMPK phosphorylation at alpha subunit at 20 uM measured after 1 hr by Western blot analysis; type: cell-based; settings: filed as activator
[16] = test system: Syrian golden hamster; experiment: Antidyslipidemic activity against HFHC diet-induced hyperlipidemia in Golden Syrian hamster model assessed as decrease in triglycerides at 100 mg/kg, po bid via gavage administered for 2 weeks and measured after 28 days by automated chemistry analyzer; type: functional, organism-based; settings: Mesocricetus auratus
[17] = test system: Syrian golden hamster; experiment: Antidyslipidemic activity against HFHC diet-induced hyperlipidemia in Golden Syrian hamster model assessed as decrease in total cholesterol level at 100 mg/kg, po bid via gavage administered for 2 weeks and measured after 28 days by automated chemistry analyzer; type: functional, organism-based; settings: Mesocricetus auratus

In the case of CC(C)(O)[C@@H]1CC[C@](C)([C@H]2CC[C@]3(C)[C@@H]2[C@H](O)C[C@@H]2[C@@]4(C)C[C@@H](O)[C@H](O)C(C)(C)[C@@H]4CC[C@]23C)O1, the EC50 ([1]; read-out: EC50) is reported as 8.8 µM and the fold change (FC) ([2]; filed as activator) is reported as 3.6.
For CC(C)(C)NCCC[C@](C)(O)[C@H]1CC[C@]2(C)[C@@H]1[C@H](O)C[C@@H]1[C@@]3(C)C[C@@H](O)[C@H](O)C(C)(C)[C@@H]3CC[C@]12C, the EC50 ([1]; read-out: EC50) was 4.9 µM and the fold change (FC) ([2]; filed as activator) was 2.1.
COc1ccc(NCCC[C@](C)(O)[C@H]2CC[C@]3(C)[C@@H]2[C@H](O)C[C@@H]2[C@@]4(C)C[C@@H](O)[C@H](O)C(C)(C)[C@@H]4CC[C@]23C)cc1 showed an EC50 ([1]; read-out: EC50) of 3.8 µM and a fold change (FC) ([2]; filed as activator) of 2.9.
For CC1(C)[C@@H](O)[C@H](O)C[C@]2(C)[C@H]3C[C@@H](O)[C@@H]4[C@@H]([C@@](C)(O)CCCNCc5cccnc5)CC[C@@]4(C)[C@]3(C)CC[C@@H]12, the Activity [3] was “Active”, the Activity [4] was “Active” and the EC50 ([1]; read-out: EC50) was 1 µM. The fold change (FC) ([2]; filed as activator) was 2.8, the “inhibition (INH)” value [5] was 20% and the Activity [6] was “Active”.
N#Cc1c(O)c2c(-c3ccc(-c4ccccc4O)cc3)csc2[nH]c1=O showed an EC50 ([1]; read-out: EC50) of 0.0096 µM and a fold change (FC) ([2]; filed as activator) of 4.2.
Molecule CC(C)(O)[C@H]1CC[C@](C)([C@H]2CC[C@]3(C)[C@@H]2[C@H](O)C[C@@H]2[C@@]4(C)C[C@@H](O)[C@H](O)C(C)(C)[C@@H]4CC[C@]23C)O1 has an EC50 ([1]; read-out: EC50) of 5.5 µM and a fold change (FC) ([2]; filed as activator) of 3.9.
In the case of CC1(C)[C@@H](O)[C@H](O)C[C@]2(C)[C@H]3C[C@@H](O)[C@@H]4[C@@H]([C@@](C)(O)CCCNCc5ccccc5)CC[C@@]4(C)[C@]3(C)CC[C@@H]12, the EC50 ([1]; read-out: EC50) is reported as 5.1 µM and the fold change (FC) ([2]; filed as activator) is reported as 3.4.
For CC1(C)[C@@H](O)[C@H](O)C[C@]2(C)[C@H]3C[C@@H](O)[C@@H]4[C@@H]([C@@](C)(O)CCCNCc5ccc(F)cc5)CC[C@@]4(C)[C@]3(C)CC[C@@H]12, the Activity [7] was “Non-Toxic”, the Activity [4] was “Active” and the EC50 ([1]; read-out: EC50) was 0.3 µM. For the same molecule, the Activity [8] was “Dose-dependent effect”, the inhibition at 20 µM [9] was 80% and the fold change (FC) ([2]; filed as activator) was 3.2. The Activity [10] was “Dose-dependent effect”.
Work on CCCNCCC[C@](C)(O)[C@H]1CC[C@]2(C)[C@@H]1[C@H](O)C[C@@H]1[C@@]3(C)C[C@@H](O)[C@H](O)C(C)(C)[C@@H]3CC[C@]12C yielded an EC50 ([1]; read-out: EC50) of 1.9 µM and a fold change (FC) ([2]; filed as activator) of 2.9.
CC1(C)[C@@H](O)[C@H](O)C[C@]2(C)[C@H]3C[C@@H](O)[C@@H]4[C@@H]([C@@](C)(O)CCCNCc5ccncc5)CC[C@@]4(C)[C@]3(C)CC[C@@H]12 showed an EC50 ([1]; read-out: EC50) of 1.2 µM and a fold change (FC) ([2]; filed as activator) of 4.1.
In the case of CCNCCC[C@](C)(O)[C@H]1CC[C@]2(C)[C@@H]1[C@H](O)C[C@@H]1[C@@]3(C)C[C@@H](O)[C@H](O)C(C)(C)[C@@H]3CC[C@]12C, the EC50 ([1]; read-out: EC50) is reported as 1.8 µM and the fold change (FC) ([2]; filed as activator) is reported as 2.3.
Work on Nc1ncnc2c1ncn2[C@@H]1O[C@H](COP(=O)(O)O)[C@@H](O)[C@H]1O [ADENOSINE PHOSPHATE] yielded an EC50 ([1]; read-out: EC50) of 1.6 µM and a fold change (FC) ([2]; filed as activator) of 3.2.
CC1(C)[C@@H](O)[C@H](O)C[C@]2(C)[C@H]3C[C@@H](O)[C@@H]4[C@@H]([C@@](C)(O)CCCNCCc5ccccc5)CC[C@@]4(C)[C@]3(C)CC[C@@H]12 gave an EC50 ([1]; read-out: EC50) of 1.2 µM and a fold change (FC) ([2]; filed as activator) of 2.
For CC(C)NCCC[C@](C)(O)[C@H]1CC[C@]2(C)[C@@H]1[C@H](O)C[C@@H]1[C@@]3(C)C[C@@H](O)[C@H](O)C(C)(C)[C@@H]3CC[C@]12C, the EC50 ([1]; read-out: EC50) was 1.2 µM and the fold change (FC) ([2]; filed as activator) was 2.
For CC(C)CCC[C@](C)(O)[C@H]1CC[C@]2(C)[C@@H]1[C@H](O)C[C@@H]1[C@@]3(C)C[C@@H](O)[C@H](O)C(C)(C)[C@@H]3CC[C@]12C, the EC50 [1] was “Not Active” and the fold change (FC) [2] was < 1.5.
With CC1(C)[C@@H](O)[C@H](O)C[C@]2(C)[C@H]3C[C@@H](O)[C@@H]4[C@@H]([C@@](C)(O)CCCNCc5ccccn5)CC[C@@]4(C)[C@]3(C)CC[C@@H]12 the Activity [3] was “Active”, the Activity [4] was “Active” and the EC50 ([1]; read-out: EC50) was 0.8 µM. For the same molecule, the fold change (FC) ([2]; filed as activator) was 3, the “inhibition (INH)” value [5] was 20% and the Activity [6] was “Active”.
COc1ccc(CNCCC[C@](C)(O)[C@H]2CC[C@]3(C)[C@@H]2[C@H](O)C[C@@H]2[C@@]4(C)C[C@@H](O)[C@H](O)C(C)(C)[C@@H]4CC[C@]23C)cc1 showed an EC50 ([1]; read-out: EC50) of 1 µM and a fold change (FC) ([2]; filed as activator) of 2.7.
In the case of C[C@H](NCCC[C@](C)(O)[C@H]1CC[C@]2(C)[C@@H]1[C@H](O)C[C@@H]1[C@@]3(C)C[C@@H](O)[C@H](O)C(C)(C)[C@@H]3CC[C@]12C)c1ccccc1, the EC50 ([1]; read-out: EC50) is reported as 1.4 µM and the fold change (FC) ([2]; filed as activator) is reported as 2.8.
For CC(C)=CCC[C@](C)(O)[C@H]1CC[C@]2(C)[C@@H]1[C@H](O)C[C@@H]1[C@@]3(C)C[C@@H](O)[C@H](O)C(C)(C)[C@@H]3CC[C@]12C, the Activity [11] was “Active”, the Activity [12] was “Active” and the Activity [13] was “inactive”. The Activity [14] was “Active”, the EC50 ([1]; read-out: EC50) was 5.1 µM and the inhibition at 20 µM [9] was 25%. For the same molecule, the Activity [15] was “Active”, the fold change (FC) ([2]; filed as activator) was 2.4 and the Activity [16] was “inactive”. For the same molecule, the Activity [17] was “Active”.
With CC1(C)[C@@H](O)[C@H](O)C[C@]2(C)[C@H]3C[C@@H](O)[C@@H]4[C@@H]([C@@](C)(O)CCCNCCCc5ccccc5)CC[C@@]4(C)[C@]3(C)CC[C@@H]12 the Activity [7] was “Non-Toxic”, the Activity [4] was “Active” and the EC50 ([1]; read-out: EC50) was 0.8 µM. The Activity [8] was “Dose-dependent effect”, the inhibition at 20 µM [9] was 80% and the fold change (FC) ([2]; filed as activator) was 2.7. The Activity [10] was “Dose-dependent effect”.
Molecule COc1ccc(CNCCC[C@](C)(O)[C@H]2CC[C@]3(C)[C@@H]2[C@H](O)C[C@@H]2[C@@]4(C)C[C@@H](O)[C@H](O)C(C)(C)[C@@H]4CC[C@]23C)cc1OC has an EC50 ([1]; read-out: EC50) of 1.1 µM and a fold change (FC) ([2]; filed as activator) of 2.8.
Work on CNCCC[C@](C)(O)[C@H]1CC[C@]2(C)[C@@H]1[C@H](O)C[C@@H]1[C@@]3(C)C[C@@H](O)[C@H](O)C(C)(C)[C@@H]3CC[C@]12C yielded an EC50 ([1]; read-out: EC50) of 1.9 µM and a fold change (FC) ([2]; filed as activator) of 2.6.
